# Assays:
# [1] = biological target: E. coli alkaline phosphatase, trypsin-modified (tm-AP) (Escherichia coli, UniProt P00634); details: 2.6×10^-6 M enzyme, 0.5 M NaCl, 0.025 M Tris, pH 7.5
# Method: (§1) Enzyme was incubated with EDTA; conditions- 2.6×10^-6 M enzyme, -0.015 M EDTA, 0.5 M NaCl, 5×10^-4 M Mg(II), 5×10^-5 M Zn(II), 5×10^-4 M spermidine, 0.025 M Tris, pH 7.5. Aliquots were withdrawn at the indicated time points and enzymatic activity in the standard phosphohydrolase assay (Appleburg, M. L. and J. E. Coleman J. Biol. Chem. 244: 308 (1969)) was determined. Data are shown as the per cent of the initial activity remaining at the times indicated. […] Enzyme was harvested and activity determined.
# (§2) Following inactivation, samples of th enzymes were dialyzed against buffer solutions containing Zn(II) and Mg(II) ions (arrow in FIG. 14).
# [2] = biological target: native bacterial alkaline phosphatase (BAP) (Escherichia coli, UniProt P00634); details: 2.6×10^-6 M enzyme, 0.5 M NaCl, 0.025 M Tris, pH 7.5
# Method: as §1, §2
# [3] = biological target: alkaline phosphatase isolated from leukocytes (Homo sapiens, UniProt P05186); details: 0.02M EDTA; cited from earlier work
# Chain of alkaline phosphatase isolated from leukocytes (P05186 18-502 limits assumed): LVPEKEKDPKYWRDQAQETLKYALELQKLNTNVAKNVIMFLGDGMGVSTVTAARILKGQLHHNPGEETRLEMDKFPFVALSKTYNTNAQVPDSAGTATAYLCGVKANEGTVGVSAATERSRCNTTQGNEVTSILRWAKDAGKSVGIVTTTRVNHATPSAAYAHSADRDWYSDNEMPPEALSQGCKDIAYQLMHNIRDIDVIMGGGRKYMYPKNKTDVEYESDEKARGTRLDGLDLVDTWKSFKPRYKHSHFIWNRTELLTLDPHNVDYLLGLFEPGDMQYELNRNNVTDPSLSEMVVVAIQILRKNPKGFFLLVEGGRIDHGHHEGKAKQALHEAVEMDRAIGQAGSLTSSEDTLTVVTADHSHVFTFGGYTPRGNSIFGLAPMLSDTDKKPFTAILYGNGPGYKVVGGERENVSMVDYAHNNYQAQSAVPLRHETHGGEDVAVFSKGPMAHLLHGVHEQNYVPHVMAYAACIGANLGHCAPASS
# Chain of E. coli alkaline phosphatase, trypsin-modified (tm-AP) (P00634 33-471): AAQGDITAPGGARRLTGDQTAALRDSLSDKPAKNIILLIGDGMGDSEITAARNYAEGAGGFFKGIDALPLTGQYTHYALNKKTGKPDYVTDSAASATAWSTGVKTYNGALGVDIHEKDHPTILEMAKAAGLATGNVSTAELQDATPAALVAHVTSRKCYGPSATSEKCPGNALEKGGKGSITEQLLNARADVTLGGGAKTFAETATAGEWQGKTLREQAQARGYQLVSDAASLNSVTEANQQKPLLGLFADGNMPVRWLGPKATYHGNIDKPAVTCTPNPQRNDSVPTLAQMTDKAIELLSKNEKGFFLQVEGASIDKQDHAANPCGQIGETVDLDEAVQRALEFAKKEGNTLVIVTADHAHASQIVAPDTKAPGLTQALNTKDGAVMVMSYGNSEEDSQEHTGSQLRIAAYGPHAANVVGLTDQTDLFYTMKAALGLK
# Chain of native bacterial alkaline phosphatase (BAP) (P00634 22-471): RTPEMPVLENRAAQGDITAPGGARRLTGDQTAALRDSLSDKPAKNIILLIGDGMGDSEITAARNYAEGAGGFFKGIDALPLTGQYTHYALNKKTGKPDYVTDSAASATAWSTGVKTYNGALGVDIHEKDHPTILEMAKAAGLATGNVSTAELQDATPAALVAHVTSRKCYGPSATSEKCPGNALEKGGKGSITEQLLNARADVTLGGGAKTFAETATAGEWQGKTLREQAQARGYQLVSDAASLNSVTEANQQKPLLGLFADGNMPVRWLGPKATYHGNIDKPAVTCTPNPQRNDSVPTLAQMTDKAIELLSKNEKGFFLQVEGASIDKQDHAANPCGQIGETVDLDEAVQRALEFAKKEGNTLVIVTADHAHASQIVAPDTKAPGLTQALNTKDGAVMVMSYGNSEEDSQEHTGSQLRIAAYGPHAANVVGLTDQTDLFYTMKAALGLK
structure (smiles),measurement,setting,value
"O=C(O)CN(CCN(CC(=O)O)CC(=O)O)CC(=O)O [EDTA, ethylene diamine tetraacetic acid]",time until activity is reduced to zero on exposure to EDTA,[1],1.5 h
same,time required for inactivation on exposure to EDTA,[2],3.5 h
same,inhibition after incubation with EDTA,[3],50%
